According to patent publication US20260234165A1, “MACROCYCLIC COMPOUNDS, PREPARATION METHOD THEREFOR, AND USE THEREOF” (GENFLEET THERAPEUTICS (SHANGHAI) INC., priority 2004, published 2026):

Columns and labels:
[1] = Assay for stability in liver microsomes; assay type: in vitro ADME; conditions: human liver microsomes
Protocol: This experiment was intended to investigate the metabolic stability of the test compounds in human liver microsomes. The materials used in the experiment included 10 mM solutions of the test compounds and the control sample, human liver microsomes, and reduced nicotinamide adenine dinucleotide phosphate (NADPH) powder. In the experiment, a 100 mM potassium phosphate buffer was used as the buffer system.
The liver microsome working solution was prepared by diluting the liver microsome stock solution to 0.75 mg/mL using the 100 mM potassium phosphate buffer. Then, 5 μL of the 10 mM stock solution of the test compound was taken, and 195 μL of methanol was added. The mixture was well mixed to prepare a working solution A with a concentration of 0.25 mM.
Subsequently, the working solution A was diluted to 1.5 μM using the liver microsome working solution to prepare a compound-liver microsome mixed solution. Additionally, NADPH powder was dissolved in a 100) mM potassium phosphate buffer to prepare a 6 mM NADPH solution. The compound-liver microsome mixed solution was dispensed into a 96-well plate at 30 μL/well, with labeled time points of 0 min, 30 min, and 60 min. For 0-min samples, 180 μL of acetonitrile containing 100 ng/mL tolbutamide and 15 μL of the NADPH solution were added directly. The 96-well plate and the NADPH solution were then preheated under a 37° C. water bath for 5 min. After the preheating, 15 μL of the NADPH solution was added to each of the 30-min and 60-min sample wells. The plate was gently shaken for mixing and then incubated under the 37° C. water bath for the corresponding time. After the incubation was completed. 180 μL of acetonitrile containing 100 ng/mL tolbutamide was added to each sample well. The plate was sealed with a sealing film, shaken for 10 min (800 rpm/min), and then centrifuged for 15 min (4000 rpm). After the centrifugation, 50 μL of the supernatant was taken and added to a 96-well plate containing 150 μL of deionized water, and then the plate was sealed and shaken for 10 min (800 rpm) for uniform mixing. Subsequently sample analysis was performed using liquid chromatography-tandem mass spectrometry (LC-MS/MS).
The elimination rate constant and clearance rate of the test compound in liver microsomes were calculated using the following formulas: Remaining rate (%)=(peak area ratio of the compound to internal standard at any time point/peak area ratio of the compound to internal standard at 0 min)×100%,^4. T1/2=0.693/ke, where ke is the elimination rate constant and T1/2 is the half-life. Liver microsome intrinsic clearance rate (CLint(mic))=0.693/(T1/2× microsome protein concentration (mg/mL)). Liver intrinsic clearance rate (CLint(liver))=CLint(mic)×microsome protein-to-liver weight ratio (mg/g)×liver-to-body weight ratio (g/kg). In the formulas, CLint(mic) is the liver microsome intrinsic clearance rate, CLint(liver) is the liver intrinsic clearance rate, and CL(liver) is the liver clearance rate. For humans, the microsome protein-to-liver weight ratio was 45 mg/g, and the liver-to-body weight ratio was 20.7 g/kg.

[2] = Pharmacokinetic study in rats; assay type: in vivo, Sprague-Dawley (SD) rats; conditions: Sprague-Dawley, rat, plasma, male SD rats
Source text: A total of 6 healthy adult male Sprague-Dawley (SD) rats were provided by Zhejiang Vital River Laboratory Animal Technology Co., Ltd. For each test compound, 6 healthy adult male SD rats were selected and randomly divided into 2 groups: an intravenous administration (IV) group and an intragastric administration (PO) group. The LC-MS/MS method was used to determine the drug concentrations in the plasma of rats at different time points after intravenous and intragastric administration of the test compounds. This experiment was intended to investigate the pharmacokinetic performance of the test compounds in rats and to evaluate the pharmacokinetic characteristics. Each drug used in the experiment was prepared from the test compound powder: An appropriate amount of test compound powder was weighed out, and appropriate amounts of DMSO, a 10% aqueous Solutol HS 15 solution, and a 6% aqueous HP-β-CD solution were sequentially added according to a volume ratio of 5:10:85. The mixture was vortexed and sonicated until clarification. The final concentration of the drug in the IV group was 0.5 mg/mL, and the final concentration of the drug in the PO group was 1 mg/mL; the concentrations could be adjusted according to actual needs. For the drug in the PO group of Z504, an appropriate amount of test compound powder was weighed out, and an appropriate amount of 0.5% MC+0.2% Tween 80 aqueous solution was added. The mixture was well mixed by vortexing to give a 1 mg/mL homogeneous suspension: the concentration could be adjusted according to actual needs.
All experimental rats were fasted overnight, and food intake was resumed 4 h after administration. For the rats in the IV group, the administration volume was set at 2 mL/kg, with Z554 and Z915 administered at a dose of 0.5 mg/kg and the other compounds at a dose of 1 mg/kg. For the rats in the PO group, the administration volume was 10 mL/kg and the dose was 10 mg/kg. The administration amount was adjusted according to the body weight of the rats on the day of administration. In the experiment, blood samples were collected from the rats in the IV group at multiple time points (0.0833 h, 0.25 h, 0.5 h, 1 h, 2 h, 4 h, 7 h, and 24 h) after administration, while blood samples were collected from the PO group at 0.25 h, 0.5 h, 1 h, 2 h, 4 h, 7 h, and 24 h after administration, with approximately 100 μL collected each time via the orbital blood collection method.
The blood samples were placed in centrifuge tubes containing EDTA-K2 and centrifuged at 8000 rpm for 4 min within 30 min to separate the supernatant plasma. The resulting plasma samples were stored at −20° C. for later use. For sample analysis, 20 μL of each of plasma samples and calibration standards was added to a 96-well plate, and 160 μL of acetonitrile containing 100 ng/mL tolbutamide was added. The samples were vortexed for 5 min for uniform mixing, and then centrifuged at 4000 rpm for 15 min. After the centrifugation was completed, 50 μL of supernatant was added to a 96-well plate containing 150 μL of deionized water. The plate was then sealed and shaken for uniform mixing. Sample analysis was performed by LC-MS/MS.
The sampling volume could be adjusted according to actual needs, but the final concentration should be kept unchanged.

With CCn1c(-c2cc(N3CCN(C)CC3)cnc2[C@H](C)OC)c2c3cc(ccc31)-c1csc(n1)C[C@H](NC(=O)[C@H]1[C@H](C)[C@@H]1C)C(=O)N1CCC[C@H](N1)C(=O)OCC(C)(C)C2 (atropisomer, axis not shown; (Ra)) [Control compound 1, (1r,2R,3S)—N-((6^3S,Z)-1^1-ethyl-(Ra)-1^2-(2-((S)-1-methoxyethyl)-5-(4-methylpiperazin-1-yl)pyridin-3-yl)-10,10-dimethyl-5,7-dioxo-6^1,6^2,6^3,6^4,6^5,6^6-hexahydro-1^1H-8-oxa-2(4,2)-thiazola-1(5,3)-indola-6(1,3)-pyridazinacycloundecaphane-4-yl)-2,3-dimethylcyclopropane-1-carboxamide, reference compound] the half-life at 1 µM ([1]; NADPH, 37° C., 0/30/60 min) was 11.8 min, the CLint scaled at 1 µM ([1]; liver intrinsic clearance rate) was 136 mL/min/kg and the clearance ([2]; IV, dose 1 mg/kg) was 42.8 mL/min/kg. It also gave an AUC ([2]; PO (intragastric), dose 10 mg/kg, read-out: AUC) of 1220 ng·h/mL and a Cmax ([2]; PO (intragastric), dose 10 mg/kg, read-out: Cmax) of 365 ng/mL.
